In the Kinase Knowledgebase extract (Sharma et al. 2016):

These compounds were tested against PIK3CG (human) (UniProt P48736) (assay: Inhibition of PIK3CG Kinase Activity).
PIK3CG (human), sequence (P48736 whole entry, looked up): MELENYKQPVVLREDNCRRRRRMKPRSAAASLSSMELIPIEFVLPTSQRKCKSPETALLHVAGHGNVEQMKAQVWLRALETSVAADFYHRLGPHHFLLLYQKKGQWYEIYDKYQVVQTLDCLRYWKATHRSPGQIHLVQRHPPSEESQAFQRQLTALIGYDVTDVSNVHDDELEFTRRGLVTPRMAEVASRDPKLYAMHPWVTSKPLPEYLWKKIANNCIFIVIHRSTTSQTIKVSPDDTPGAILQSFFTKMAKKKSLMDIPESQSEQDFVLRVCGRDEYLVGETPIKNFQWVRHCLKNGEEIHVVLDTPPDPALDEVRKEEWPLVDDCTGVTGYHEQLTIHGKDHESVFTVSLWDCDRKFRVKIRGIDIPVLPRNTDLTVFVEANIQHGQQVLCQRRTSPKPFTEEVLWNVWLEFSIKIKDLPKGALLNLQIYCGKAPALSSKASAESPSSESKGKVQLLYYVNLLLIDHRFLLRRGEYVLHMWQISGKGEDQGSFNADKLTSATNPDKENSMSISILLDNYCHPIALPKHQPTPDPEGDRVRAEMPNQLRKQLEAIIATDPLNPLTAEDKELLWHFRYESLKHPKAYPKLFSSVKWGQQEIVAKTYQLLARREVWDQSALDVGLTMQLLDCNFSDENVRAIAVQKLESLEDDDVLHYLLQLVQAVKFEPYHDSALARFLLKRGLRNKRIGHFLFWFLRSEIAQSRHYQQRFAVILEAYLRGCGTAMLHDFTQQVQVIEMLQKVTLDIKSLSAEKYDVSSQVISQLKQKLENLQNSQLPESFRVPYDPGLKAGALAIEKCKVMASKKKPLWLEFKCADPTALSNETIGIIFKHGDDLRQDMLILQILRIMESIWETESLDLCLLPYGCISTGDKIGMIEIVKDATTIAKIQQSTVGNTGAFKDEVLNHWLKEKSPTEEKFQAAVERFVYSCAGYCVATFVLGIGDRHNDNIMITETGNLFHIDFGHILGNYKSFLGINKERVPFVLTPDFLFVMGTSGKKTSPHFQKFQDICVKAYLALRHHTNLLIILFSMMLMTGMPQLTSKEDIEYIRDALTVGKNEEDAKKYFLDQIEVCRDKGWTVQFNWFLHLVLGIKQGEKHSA

Structure (SMILES)	Ki
COc1cncc(-c2cc(C)c3c(n2)[C@H](C)N(c2ccn(CC(C)(C)O)n2)C3=O)c1	< 100 nM
CCOc1cncc(-c2cc(C)c3c(n2)C(C)(C)N(c2cnn(CC#N)c2)C3=O)c1	< 100 nM
Cc1cc(-c2cncc(CO)c2)nc2c1C(=O)N(c1cnn(CC(F)(F)F)c1)C2	< 100 nM
Cc1cc(-c2cncc(OCC(F)F)c2)nc2c1C(=O)N(c1cnn(CC(F)(F)F)c1)[C@H]2C	< 100 nM
COc1ccc(-c2ccc3c(n2)CN(c2cnn(CC#N)c2)C3=O)c(C)n1	100 to 490 nM
COc1ncc(-c2cc(C)c3c(n2)CN(c2cnn(CC#N)c2)C3=O)c(OC)n1	< 100 nM
COc1cc(-c2cc(C)c3c(n2)CN(c2cnc(OC)c(F)c2)C3=O)cnc1OC	< 100 nM
COc1cc(-c2ccc3c(n2)[C@H](C)N(c2cnn(CC(C)(C)O)c2)C3=O)cnc1OC	< 100 nM
COc1cc(-c2cc(C)c3c(n2)CN(c2cnn(CC(F)(F)F)c2)C3=O)ccc1Cl	< 100 nM
COc1cc(-c2ccc3c(n2)C(C)N(c2ccn(CC(C)(C)F)n2)C3=O)cnc1OC (stereo not given)	< 100 nM
COc1cc(-c2ccc3c(n2)CN(c2ccc(N4CCOCC4)nc2)C3=O)cnc1OC	100 to 490 nM
COc1cncc(N2Cc3nc(-c4cnc(OC)c(OC)c4)ccc3C2=O)c1	< 100 nM
Cc1cc(-c2cncc(S(C)(=O)=O)c2)nc2c1C(=O)N(c1cnn(CC(F)(F)F)c1)C2C (stereo not given)	< 100 nM
CCCNC(=O)c1cncc(-c2cc(C)c3c(n2)C(C)(C)N(c2cnn(CC(F)(F)F)c2)C3=O)c1	< 100 nM
COCCOCn1cc(N2Cc3nc(-c4cnc(OC)c(OC)c4)ccc3C2=O)cn1	< 100 nM
COc1cc(-c2ccc3c(n2)CN(c2cnn(C)c2)C3=O)cnc1OC	< 100 nM
COc1cc(-c2cc(C)c3c(n2)C(C)N(c2cnn(C[C@@H](C)O)c2)C3=O)cnc1OC (stereo not given in full)	< 100 nM
COc1cc(-c2cc(C)c3c(n2)CN(c2ccnc(OCC(F)F)c2)C3=O)cnc1OC	< 100 nM
COc1cc(-c2ccc3c(n2)[C@H](C)N(c2cc[nH]n2)C3=O)cnc1OC	< 100 nM
CCOc1cc(-c2cc(C)c3c(n2)C(C)(C)N(c2cnn(CC(F)(F)F)c2)C3=O)cnc1C	< 100 nM
COc1cc(-c2ccc3c(n2)CN(c2ccc(N4CCC(F)CC4)nc2)C3=O)cnc1OC	< 100 nM
Cc1cc(-c2cncc(S(=O)(=O)N(C)C)c2)nc2c1C(=O)N(c1cnn(CC(F)(F)F)c1)C21CCOC1 (stereo not given)	< 100 nM
COc1ncc(-c2ccc3c(n2)C(C)N(c2cnn(CC(F)(F)F)c2)C3=O)cc1O (stereo not given)	< 100 nM
COc1cc(-c2cc(C)c3c(n2)CN(c2cncc(F)c2)C3=O)cnc1OC	< 100 nM

Structure (SMILES)	Ki
COc1cc(-c2ccc3c(n2)CN(c2cnn(CCN4CCC(C#N)CC4)c2)C3=O)cnc1OC	100 to 490 nM
COc1cc(-c2ccc3c(n2)[C@@H](C)N(c2cccc(C(C)(C)C#N)n2)C3=O)cnc1OC	< 100 nM
COc1ncc(-c2cc(C)c3c(n2)CN(c2cnn(CC#N)c2)C3=O)cn1	< 100 nM
C#CCNC(=O)c1cncc(-c2cc(C)c3c(n2)C(C)(C)N(c2cnn(CC(F)(F)F)c2)C3=O)c1	< 100 nM
COc1cc(-c2cc(C)c3c(n2)CN(c2cn[nH]c2)C3=O)cnc1OC	< 100 nM
CCOc1ncc(-c2cc(C)c3c(n2)CN(c2cc[nH]n2)C3=O)cc1OC	< 100 nM
COc1cncc(-c2cc(C)c3c(n2)[C@]2(CCCO2)N(c2cnn(CC(F)(F)F)c2)C3=O)c1	100 to 490 nM
COc1cc(-c2ccc3c(n2)CN(c2ccc(N4CCOC(CO)C4)nc2)C3=O)cnc1OC (stereo not given)	100 to 490 nM
CCn1ccc(N2Cc3nc(-c4cnc(OC)c(OC(C)C)c4)cc(C)c3C2=O)n1	< 100 nM
COc1cc(-c2cc(C)c3c(n2)[C@H](OC)N(c2cnn(CC(F)(F)F)c2)C3=O)cnc1OC	< 100 nM
CO[C@@H]1c2nc(-c3cncc(OCC(F)F)c3)cc(C)c2C(=O)N1c1cnn(CC(F)(F)F)c1	< 100 nM
Cc1cc(-c2cncc(N)c2)nc2c1C(=O)N(c1cnn(CC(F)(F)F)c1)C2(C)C	< 100 nM
COc1cc(-c2cc(C)c3c(n2)C(OC(C)=O)N(c2cnn(CC(F)(F)F)c2)C3=O)cnc1OC (stereo not given)	< 100 nM
CCOc1cncc(-c2cc(C)c3c(n2)C(OC)N(c2cnn(CC(F)(F)F)c2)C3=O)c1 (stereo not given)	< 100 nM
CON=Cc1cncc(-c2cc(C)c3c(n2)C(C)(C)N(c2cnn(CC(F)(F)F)c2)C3=O)c1	< 100 nM
COc1cc(-c2cc(C)c3c(n2)C2(CC2)N(c2cnn(CC(F)(F)F)c2)C3=O)cnc1OC(C)C	< 100 nM
COc1cc(-c2cc(C)c3c(n2)CN(c2cccc(C(C)(C)C#N)n2)C3=O)cnc1OC	< 100 nM
COc1cc(-c2ccc3c(n2)CN(c2cncc(C(C)(C)C#N)c2)C3=O)cnc1OC	< 100 nM
CCn1ccc(N2C(=O)c3c(C)cc(-c4cncc(OC)c4)nc3[C@H]2C)n1	< 100 nM
COc1cc(-c2ccc3c(n2)CN(c2cnn(C(F)(F)C#N)c2)C3=O)cnc1OC	< 100 nM
COc1cc(-c2ccc3c(n2)C(C)N(c2cnn(C[C@@H](C)O)c2)C3=O)cnc1OC (stereo not given in full)	100 to 490 nM
COc1cncc(-c2cc(C)c3c(n2)C(C)N(c2ccn(CC(C)(C)F)n2)C3=O)c1 (stereo not given)	< 100 nM
COc1ncc(-c2cc(C)c3c(n2)CN(c2ccn(C4COC4)n2)C3=O)cc1OCC(F)(F)F	< 100 nM
Cc1cc(-c2cncc(C(=O)O)c2)nc2c1C(=O)N(c1ccn([C@H]3CCOC3)n1)C2	< 100 nM

Structure (SMILES)	Ki
CCn1cc(N2C(=O)c3c(C)cc(-c4cncc(OC)c4)nc3C2(C)C)cn1	< 100 nM
COc1ncc(-c2cc(C)c3c(n2)C(C)(C)N(c2cnn(CC(F)(F)F)c2)C3=O)cc1C(=O)N(C)C	< 100 nM
COc1ncc(-c2cc(C)c3c(n2)C(C)(C)N(c2cnn(CC(F)(F)F)c2)C3=O)cc1C(=O)NC(C)(C)C	< 100 nM
C=C(F)Cn1cc(N2C(=O)c3ccc(-c4cnc(OC)c(OC)c4)nc3C2(C)C)cn1	< 100 nM
COc1cc(-c2ccc3c(n2)CN(c2cncc(C#CCO)c2)C3=O)cnc1OC	100 to 490 nM
COc1cc(-c2ccc3c(n2)C(C)N(c2cnn(CC#N)c2)C3=O)cnc1OC (stereo not given)	< 100 nM
COc1cc(-c2cc(C)c3c(n2)CN(c2ccnc(C)c2)C3=O)cnc1OC	< 100 nM
COc1cc(-c2ccc3c(c2)CN(c2cccc(C#N)c2)C3=O)cnc1OC	100 to 490 nM
CCOc1cc(-c2cc(C)c3c(n2)CN(c2ccon2)C3=O)cnc1OCC	< 100 nM
Cc1cc(-c2cncc(OC(F)F)c2)nc2c1C(=O)N(c1cnn(CC(F)(F)F)c1)C2(C)C	< 100 nM
COc1cncc(-c2cc(C)c3c(n2)C(OCCO)N(c2cnn(CC(F)(F)F)c2)C3=O)c1 (stereo not given)	< 100 nM
COCCOCCOc1ncc(-c2cc(C)c3c(n2)C(C)N(c2cnn(CC(F)(F)F)c2)C3=O)cc1OC (stereo not given)	< 100 nM
COc1cc(-c2ccc3c(n2)CN(c2cnn(C(F)(F)C(N)=O)c2)C3=O)cnc1OC	< 100 nM
COc1cc(-c2cc(C)c3c(n2)[C@@H](C)N(c2cnn(C[C@@H](C)O)c2)C3=O)cnc1OC	< 100 nM
C=C1c2nc(-c3cnc(OC)c(OC)c3)ccc2C(=O)N1c1cnn(CC#N)c1	< 100 nM
Cc1cc(-c2cncc(OC(F)F)c2)nc2c1C(=O)N(c1cn[nH]c1)C2	< 100 nM
COc1cc(-c2ccc3c(c2)CN(c2cccc(C(C)C#N)c2)C3=O)cnc1OC (stereo not given)	100 to 490 nM
Cc1cc(-c2cncc(OCC(F)(F)F)c2)nc2c1C(=O)N(c1cnn(CC(F)(F)F)c1)[C@@H]2C	< 100 nM
Cc1cc(-c2cncc(OC(F)F)c2)nc2c1C(=O)N(c1cc[nH]n1)C2	< 100 nM
CCn1cc(N2Cc3nc(-c4cnc(OC)c(OC)c4)cc(C)c3C2=O)cn1	< 100 nM
COc1cc(-c2cc(C)c3c(n2)CN(c2cnc(NC(C)=O)c(C)c2)C3=O)cnc1OC	< 100 nM
COc1cc(-c2cc(C)c3c(n2)CN(c2cnn(CC(F)(F)F)c2)C3=O)cnc1O	< 100 nM
CCn1cc(N2C(=O)c3ccc(-c4cnc(OC)c(OC)c4)nc3C2C)cn1 (stereo not given)	< 100 nM
COc1ccc(-c2cc(C)c3c(n2)CN(c2cnn(CC(F)(F)F)c2)C3=O)cn1	< 100 nM

Structure (SMILES)	Ki
CCn1cc(N2Cc3nc(-c4cnc(OC)c(OC)c4)ccc3C2=O)nn1	< 100 nM
COc1cc(-c2ccc3c(c2)CN(c2cnn(CCC#N)c2)C3=O)cnc1OC	< 100 nM
Cc1cc(-c2cncc(OC(F)F)c2)nc2c1C(=O)N(c1cnn(C[C@H](C)O)c1)[C@@H]2C	< 100 nM
Cc1cc(-c2cncc(OC(F)F)c2)cc2c1C(=O)N(c1cnn(CC(F)(F)F)c1)C2	< 100 nM
COc1ncc(-c2cc(C)c3c(n2)C(C)N(c2cnn(CC(F)F)c2)C3=O)cc1C(=O)NCC(F)F (stereo not given)	< 100 nM
Cc1cc(-c2cncc(C(=O)N(C)C(C)CO)c2)nc2c1C(=O)N(c1cnn(CC(F)(F)F)c1)C2 (stereo not given)	100 to 490 nM
COc1cc(-c2ccc3c(n2)C(C)N(c2ccnc(C(C)C#N)c2)C3=O)cnc1OC (stereo not given)	< 100 nM
COc1ncc(-c2cc(C)c3c(n2)C(C)(C)N(c2cnn(CC(F)(F)F)c2)C3=O)cc1C(=O)NCCN(C)C	< 100 nM
CCOc1cncc(-c2cc(C)c3c(n2)C2(CCOC2)N(c2cnn(CC(F)(F)F)c2)C3=O)c1 (stereo not given)	< 100 nM
COc1cc(-c2ccc3c(n2)CN(c2cnn(CCn4cncn4)c2)C3=O)cnc1OC	< 100 nM
CCn1cc(N2C(=O)c3ccc(-c4cnc(OC)c(OC)c4)nc3[C@H]2C)cn1	< 100 nM
COc1ccc(-c2cc(C)c3c(n2)CN(c2cnn(C(C)(C)C#N)c2)C3=O)cc1OC	< 100 nM
CCOc1cncc(-c2cc(C)c3c(n2)C(C)N(c2cnn(CC(F)(F)F)c2)C3=O)c1 (stereo not given)	< 100 nM
CCn1ccc(N2C(=O)c3ccc(-c4cnc(OC)c(OC)c4)nc3C2C)n1 (stereo not given)	< 100 nM
COc1cncc(-c2cc(C)c3c(n2)C(C)(C)N(c2cc[nH]n2)C3=O)c1	100 to 490 nM
COc1cc(-c2cc(C)c3c(n2)CN(c2ccc(CO)nc2)C3=O)cnc1OC	< 100 nM
Cc1cc(-c2cncc(OCC(F)(F)F)c2)nc2c1C(=O)N(c1cnn(CC(F)(F)F)c1)[C@H]2C	< 100 nM
COCCOc1ncc(-c2cc(C)c3c(n2)CN(c2cnn(CC#N)c2)C3=O)cc1OC	< 100 nM
COc1cncc(-c2cc(C)c3c(n2)[C@]2(CCOC2)N(c2cnn(CC(F)(F)F)c2)C3=O)c1	< 100 nM
Cc1cc(-c2cncc(OCC(F)(F)F)c2)nc2c1C(=O)N(c1cnn(CC(F)F)c1)C2(C)C	< 100 nM
COc1cc(-c2ccc3c(c2)CN(c2cnn(CCCO)c2)C3=O)cnc1OC	100 to 490 nM
C#CCNC(=O)c1cncc(-c2cc(C)c3c(n2)C(C)N(c2cnn(CC(F)(F)F)c2)C3=O)c1 (stereo not given)	< 100 nM
Cc1cc(-c2cncc(C(=O)NC(C)(C)C)c2)nc2c1C(=O)N(c1cnn(CC(F)(F)F)c1)C2	< 100 nM
